Measurements as given in patent publication US11952387B2, “Bicyclic heteroaromatic ring derivative” (priority 2018, dated 2024).

What follows are compounds tested on HRV14 (assay: Inhibitory activity against human rhinovirus infection and replication (quantitative real-time PCR)). Conditions: Human rhinovirus sp., MRC5; 100 nmol/L test compound; MRC-5 cells infected with HRV14 at MOI=0.2; 48 hours; viral load normalized to 18s rRNA; read-out: Percent Inhibition.
Assay type: cell-based
Method in brief: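 Near-confluent MRC-5 cells were pretreated 30 min with compound at 100 or 1000 nmol/L, then infected with HRV14 (MOI 0.2) in compound-containing medium (2% FBS, 30 mmol/L MgCl2) and cultured 48 h at 35 °C. HRV14 RNA by qRT-PCR, normalized to 18S rRNA; percent inhibition versus untreated infected cells.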
`Cc1nc2sc(C(C)(C)O)nn2c1-c1ccc(C(F)(F)F)c(S(=O)(=O)NCC(O)C(F)(F)F)c1` (stereo not shown) [Example 2-33] showed an inhibition at 0.1 µM of over 80%.
Compound `COc1ccc(-c2c(C)nc3sc(C(C)(C)O)nn23)cc1S(=O)(=O)C1CN(S(C)(=O)=O)C1` [Example 9-2] has an inhibition at 0.1 µM of 50 to 80%.
Compound `COc1ccc(-c2c(C)nc3sc(C(C)(C)O)nn23)cc1S(=O)(=O)[C@H]1C[C@](C)(O)C1` [Example 2-76] has an inhibition at 0.1 µM of over 80%.
In the case of `COc1ccc(-c2c(C)nc3sc(C(C)(C)O)nn23)cc1S(=O)(=O)NCC1COC1` [Example 21-4], the inhibition at 0.1 µM is reported as 50 to 80%.
For `Cc1nc2sc(C(C)(C)O)nn2c1-c1ccc(C(F)(F)F)c(S(=O)(=O)C2CN(S(C)(=O)=O)C2)c1` [Example 9-1], the inhibition at 0.1 µM was over 80%.
With `COc1ccc(-c2c(C)nc3sc(C(C)(C)C(=O)N(C)C)nn23)cc1S(=O)(=O)N[C@H]1CC[C@@H](O)CC1` [Example 19] the inhibition at 0.1 µM was over 80%.
For `COc1ccc(-c2c(C)nc3sc(C(O)(C4CC4)C4CC4)nn23)cc1S(=O)(=O)C(C)(C)CO` [Example 4-5], the inhibition at 0.1 µM was over 80%.
`COc1ccc(-c2c(C)nc3sc(C(C)(C)C(=O)O)nn23)cc1S(=O)(=O)N[C@H]1CC[C@@H](O)CC1` [Example 18-1] gave an inhibition at 0.1 µM of 50 to 80%.
In the case of `COc1ccc(-c2c(C)nc3sc(C(C)(C)O)nn23)cc1S(=O)(=O)NC[C@H]1C[C@@H](O)C1` [Example 21-3], the inhibition at 0.1 µM is reported as 50 to 80%.
`COc1ccc(-c2c(C)nc3sc(C4CC4)cn23)cc1S(=O)(=O)N[C@H]1CC[C@@H](O)CC1` [Example 1-48] gave an inhibition at 0.1 µM of 50 to 80%.
